Measured values from patent publication US20240197755A1, “Pharmaceutical composition for use in the therapeutic treatment of cancer and complications of cancer” (priority 2016, published 2024).

How the values were obtained:
[1] = tested on: HCCLM3 cells; details: cited from earlier work
[2] = tested on: Hep3B (hepatocellular carcinoma); experiment: Antiproliferative effect on Hep3B cell line, 72 h exposure; assay type: cell-based, human; details: 72 hours of exposure
Excerpt: (§1) Different human Hep3B (hepatocellular carcinoma), MCF-7 (breast cancer), DU-145 (prostate cancer) cell lines were studied. They were selected on the basis of their ability to overexpress at least one protein from among reptin, pontin, and survivin. The stromal cells were also studied in order to determine the impact of the composition according to the invention in the tumor microenvironment. These cells were maintained in DMEM and supplemented with 10% fetal bovine serum (FBS) and 1% antibiotic-antimycotic solution (MSP) containing penicillin, streptomycin, and amphotericin B under standard growth conditions (5% CO2, 37° C., humidified atmosphere). The compositions above were dissolved and diluted in DMSO.
(§2) The cells above were treated with increasing solutions for 72 h in complete cell media. All treatment and control protocols were prepared as described previously.

[3] = tested on: DU-145 (prostate cancer); experiment: Antiproliferative effect on DU-145 cell line, 72 h exposure; assay type: cell-based, human; details: DU-145, 72 hours of exposure
Excerpt: as §1, §2

[4] = rats, oral, 50 mg/kg, 18 consecutive days; cited from earlier work
[5] = tested on: MCF-7 (breast cancer); experiment: Antiproliferative effect on MCF-7 cell line, 72 h exposure; assay type: cell-based, human; details: MCF-7, 72 hours of exposure
Excerpt: as §1, §2

[6] = tested on: U251/AMD cells; details: cited from earlier work

Structure (SMILES)	expression of the BDNF protein ([1]; HCCLM3 cells)	cell proliferation of HCCLM3 cells ([1]; as a function of concentration and time)	antiproliferative effect [2]	antiproliferative effect [3]	mortality and systemic toxicity [4]	antiproliferative effect [5]	IC50 of U251/AMD cells ([6]; AMD, with beta-elemene) [mg/L]	intracellular accumulation of AMD ([6]; U251/AMD cells)
C=C(C)[C@@H]1CC[C@]2(C)CC[C@]3(C)[C@H](CC[C@@H]4[C@@]5(C)CC[C@H](O)C(C)(C)[C@@H]5CC[C@]43C)[C@@H]12 [lupeol]	marked decrease	inhibits cell proliferation	more pronounced antiproliferative effect	more pronounced antiproliferative effect	neither mortality nor systemic toxicity	more pronounced antiproliferative effect	–	–
C=C[C@]1(C)CC[C@@H](C(=C)C)C[C@H]1C(=C)C [Composition 13-elemene, beta-elemene]	–	–	–	–	–	–	0.051	increases the intracellular accumulation of AMD
O=CC=Cc1ccccc1O [2-hydroxycinnamaldehyde]	–	–	more pronounced antiproliferative effect	more pronounced antiproliferative effect	–	more pronounced antiproliferative effect	–	–
